Structures are written as SMILES. The source made the active and inactive calls. Where only a bound is given, the exact number is not on record here.

Usually Ki stands for a dissociation constant, usually derived from enzyme kinetics or from competition with a known ligand.

In test [1] the target is RAC-gamma serine/threonine-protein kinase (Homo sapiens, UniProt Q9Y243). It is filed as functional.
Test [2] has as its target Fibroblast growth factor receptor 3 (Homo sapiens, UniProt P22607). The format is functional.
Test [3] addresses Vascular endothelial growth factor receptor 3 (Homo sapiens, UniProt P35916). The format is functional.
In test [4] the target is Receptor tyrosine-protein kinase erbB-2 (Homo sapiens, UniProt P04626). The test is described as follows: Navigating the Kinome. Panel member name: ERBB2. It is filed as functional.
The target of test [5] is LIM domain kinase 1 (Homo sapiens, UniProt P53667). The test is described as follows: Navigating the Kinome. Panel member name: LIMK1. The format is functional.
Sequence of LIM domain kinase 1 (P53667 whole entry, the tested form may be a part): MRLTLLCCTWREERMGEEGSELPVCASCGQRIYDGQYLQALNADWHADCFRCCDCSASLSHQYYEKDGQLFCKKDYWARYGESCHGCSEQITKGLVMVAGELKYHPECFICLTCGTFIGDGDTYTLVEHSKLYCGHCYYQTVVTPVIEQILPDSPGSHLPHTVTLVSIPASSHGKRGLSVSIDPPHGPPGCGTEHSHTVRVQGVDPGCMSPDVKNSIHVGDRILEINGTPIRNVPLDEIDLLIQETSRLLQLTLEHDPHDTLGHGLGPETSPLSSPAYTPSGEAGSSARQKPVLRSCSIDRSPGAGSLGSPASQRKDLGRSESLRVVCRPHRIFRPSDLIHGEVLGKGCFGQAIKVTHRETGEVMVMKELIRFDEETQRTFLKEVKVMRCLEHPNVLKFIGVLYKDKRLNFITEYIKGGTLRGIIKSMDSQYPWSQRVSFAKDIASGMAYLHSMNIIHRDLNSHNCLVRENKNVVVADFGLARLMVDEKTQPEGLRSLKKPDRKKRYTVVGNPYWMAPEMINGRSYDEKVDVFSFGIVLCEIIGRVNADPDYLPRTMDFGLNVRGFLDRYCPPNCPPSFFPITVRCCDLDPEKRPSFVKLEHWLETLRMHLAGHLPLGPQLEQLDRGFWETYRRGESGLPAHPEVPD
Test [6] has as its target Rho-associated protein kinase 2 (Homo sapiens, UniProt O75116). It is filed as functional.
Test [7] has as its target Ribosomal protein S6 kinase beta-1 (Homo sapiens, UniProt P23443). The format is functional.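 Note: measured as one member of a kinome-wide profiling panel.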
The target in test [8] is Serine/threonine-protein kinase PLK3 (Homo sapiens, UniProt Q9H4B4). The format is functional.
Test [9] deals with MAP/microtubule affinity-regulating kinase 3 (Homo sapiens, UniProt P27448). It is filed as functional.
In test [10] the target is Epidermal growth factor receptor (Homo sapiens, UniProt P00533).
In test [11] the target is Calcium/calmodulin-dependent protein kinase type 1 (Homo sapiens, UniProt Q14012). The format is functional.
Sequence of Calcium/calmodulin-dependent protein kinase type 1 (Q14012 whole entry): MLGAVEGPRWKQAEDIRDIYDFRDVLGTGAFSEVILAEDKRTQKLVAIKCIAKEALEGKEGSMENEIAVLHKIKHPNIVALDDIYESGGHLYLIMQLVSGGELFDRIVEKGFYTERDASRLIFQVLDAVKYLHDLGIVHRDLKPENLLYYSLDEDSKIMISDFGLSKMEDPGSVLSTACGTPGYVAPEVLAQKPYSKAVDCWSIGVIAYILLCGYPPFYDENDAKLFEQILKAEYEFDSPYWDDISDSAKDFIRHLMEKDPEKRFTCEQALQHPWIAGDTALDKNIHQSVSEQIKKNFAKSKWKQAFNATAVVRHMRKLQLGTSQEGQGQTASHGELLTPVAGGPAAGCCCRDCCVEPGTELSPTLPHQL
The target of test [12] is Serine/threonine-protein kinase PAK 1 (Homo sapiens, UniProt Q13153). It is filed as functional.
For test [13], the target named is Protein kinase C gamma type (Homo sapiens, UniProt P05129). It is filed as functional.
The target in test [14] is Mitogen-activated protein kinase 13 (Homo sapiens, UniProt O15264). It is filed as functional.
Test [15] addresses Serine/threonine-protein kinase Chk1 (Homo sapiens, UniProt O14757). The format is functional.
In test [16] the target is RAC-alpha serine/threonine-protein kinase (Homo sapiens, UniProt P31749). It is filed as functional.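 Note: AKT1 affinity measured as one member of a kinome-wide kinase profiling panel.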
The target in test [17] is Tyrosine-protein kinase ITK/TSK (Homo sapiens, UniProt Q08881). It is filed as functional.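 Note: affinity for ITK measured as one member of a broad kinase panel profiling binding across the kinome.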
In test [18] the target is Cyclin-dependent kinase 5 (Homo sapiens, UniProt Q00535). The format is functional.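 Note: CDK5 measured as one member of a kinase profiling panel.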
The target in test [19] is Hepatocyte growth factor receptor (Homo sapiens, UniProt P08581). The format is functional.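 Note: kinase panel profiling across the kinome, with MET as the panel member.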
For test [20], the target named is Protein kinase C delta type (Homo sapiens, UniProt Q05655). It is filed as functional.
Test [21] concerns the target Inhibitor of nuclear factor kappa-B kinase subunit beta (Homo sapiens, UniProt O14920). It is filed as functional.
Test [22] addresses Casein kinase II subunit alpha (Homo sapiens, UniProt P68400). The format is functional.
The target of test [23] is Insulin receptor (Homo sapiens, UniProt P06213). It is filed as functional.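 Note: insulin receptor kinase tested as one member of a kinome-wide kinase panel.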
Test [24] concerns the target Mitogen-activated protein kinase 12 (Homo sapiens, UniProt P53778). The format is functional.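 Note: measured as one member of a kinome-wide kinase profiling panel.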
In test [25] the target is Serine/threonine-protein kinase PLK4 (Homo sapiens, UniProt O00444). The format is functional.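 Note: PLK4 measured as one member of a kinome-wide kinase profiling panel.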
The target of test [26] is Serine/threonine-protein kinase Nek2 (Homo sapiens, UniProt P51955). It is filed as functional.
The target of test [27] is Non-receptor tyrosine-protein kinase TYK2 (Homo sapiens, UniProt P29597). The format is functional.
Sequence of Non-receptor tyrosine-protein kinase TYK2 (P29597 whole entry): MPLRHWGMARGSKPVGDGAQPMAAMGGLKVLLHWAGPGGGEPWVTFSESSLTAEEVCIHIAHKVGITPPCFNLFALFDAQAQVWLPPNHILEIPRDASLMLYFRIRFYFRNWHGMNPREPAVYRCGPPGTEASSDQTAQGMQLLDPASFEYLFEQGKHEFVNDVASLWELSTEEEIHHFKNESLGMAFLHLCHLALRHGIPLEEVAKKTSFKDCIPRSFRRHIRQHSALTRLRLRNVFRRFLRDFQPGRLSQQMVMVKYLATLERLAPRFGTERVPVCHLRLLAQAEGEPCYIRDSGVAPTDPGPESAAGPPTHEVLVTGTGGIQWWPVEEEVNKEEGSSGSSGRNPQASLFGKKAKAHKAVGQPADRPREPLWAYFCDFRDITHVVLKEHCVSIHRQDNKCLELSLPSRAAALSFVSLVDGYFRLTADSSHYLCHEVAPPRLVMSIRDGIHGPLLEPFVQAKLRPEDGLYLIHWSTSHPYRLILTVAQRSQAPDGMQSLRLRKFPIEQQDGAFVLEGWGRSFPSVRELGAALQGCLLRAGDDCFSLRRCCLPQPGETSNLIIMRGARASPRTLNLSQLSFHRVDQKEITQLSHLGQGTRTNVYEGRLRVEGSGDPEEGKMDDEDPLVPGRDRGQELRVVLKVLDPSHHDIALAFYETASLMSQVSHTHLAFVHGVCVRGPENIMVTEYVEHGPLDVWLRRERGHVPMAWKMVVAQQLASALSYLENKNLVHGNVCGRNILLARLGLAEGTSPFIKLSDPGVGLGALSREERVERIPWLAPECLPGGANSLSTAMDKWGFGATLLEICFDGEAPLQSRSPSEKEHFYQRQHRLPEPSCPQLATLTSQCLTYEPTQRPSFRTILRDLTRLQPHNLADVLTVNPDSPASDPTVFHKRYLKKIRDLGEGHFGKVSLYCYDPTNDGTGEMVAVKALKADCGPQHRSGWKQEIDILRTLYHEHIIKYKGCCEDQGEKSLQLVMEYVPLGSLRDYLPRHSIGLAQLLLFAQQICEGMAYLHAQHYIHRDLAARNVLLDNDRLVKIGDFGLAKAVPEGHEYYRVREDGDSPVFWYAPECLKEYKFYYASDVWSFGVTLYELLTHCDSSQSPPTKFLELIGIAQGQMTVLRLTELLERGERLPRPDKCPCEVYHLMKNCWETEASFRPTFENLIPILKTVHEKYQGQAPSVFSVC
Test [28] has as its target Dual specificity mitogen-activated protein kinase kinase 2 (Homo sapiens, UniProt P36507). The test is described as follows: Navigating the Kinome. Panel member name: MAP2K2. It is filed as functional.
In test [29] the target is Mitogen-activated protein kinase kinase kinase kinase 2 (Homo sapiens, UniProt Q12851). It is filed as functional.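 Note: measured as one member of a kinome-wide kinase panel, with MAP4K2 as the panel entry.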
Test [30] addresses Serine/threonine-protein kinase TBK1 (Homo sapiens, UniProt Q9UHD2). The test is described as follows: Navigating the Kinome. Panel member name: TBK1. It is filed as functional.
In test [31] the target is Tyrosine-protein kinase Lck (Homo sapiens, UniProt P06239). It is filed as functional.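 Note: lck was assayed as one member of a kinase panel.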
Sequence of Tyrosine-protein kinase Lck (P06239 whole entry): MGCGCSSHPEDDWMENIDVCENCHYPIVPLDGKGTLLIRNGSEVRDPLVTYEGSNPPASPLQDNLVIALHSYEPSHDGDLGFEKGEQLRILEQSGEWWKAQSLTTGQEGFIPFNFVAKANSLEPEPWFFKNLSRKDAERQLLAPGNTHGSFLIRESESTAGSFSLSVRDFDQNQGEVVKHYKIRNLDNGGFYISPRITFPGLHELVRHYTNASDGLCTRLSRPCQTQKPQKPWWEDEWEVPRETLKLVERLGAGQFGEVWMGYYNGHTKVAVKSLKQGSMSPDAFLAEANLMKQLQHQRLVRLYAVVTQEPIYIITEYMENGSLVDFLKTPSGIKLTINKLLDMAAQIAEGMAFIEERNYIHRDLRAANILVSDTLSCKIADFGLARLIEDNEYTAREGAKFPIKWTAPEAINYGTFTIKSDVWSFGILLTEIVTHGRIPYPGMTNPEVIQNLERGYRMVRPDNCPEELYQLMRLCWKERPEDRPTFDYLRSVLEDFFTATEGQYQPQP
Test [32] concerns the target Mitogen-activated protein kinase 14 (Homo sapiens, UniProt Q16539). It is filed as functional.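 Note: part of a kinome-wide panel, MAPK14 entry.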
For test [33], the target named is Calcium/calmodulin-dependent protein kinase type II subunit delta (Homo sapiens, UniProt Q13557). The format is functional.
Test [34] addresses Platelet-derived growth factor receptor alpha (Homo sapiens, UniProt P16234). Put plainly: Navigating the Kinome. Panel member name: PDGFRA. It is filed as functional.
The target of test [35] is Serine/threonine-protein kinase D3 (Homo sapiens, UniProt O94806). It is filed as functional.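 Note: determined within a kinase panel screen, with PRKCN as the panel member.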
For test [36], the target named is Activin receptor type-1 (Homo sapiens, UniProt Q04771). The test is described as follows: Navigating the Kinome. Panel member name: ACVR1. The format is functional.
The target in test [37] is Calcium/calmodulin-dependent protein kinase type II subunit alpha (Homo sapiens, UniProt Q9UQM7). Put plainly: Navigating the Kinome. Panel member name: CAMK2A. It is filed as functional.
Test [38] addresses Inhibitor of nuclear factor kappa-B kinase subunit epsilon (Homo sapiens, UniProt Q14164). Put plainly: Navigating the Kinome. Panel member name: IKBKE. It is filed as functional.
For test [39], the target named is Serine/threonine-protein kinase N2 (Homo sapiens, UniProt Q16513). It is filed as functional.
Test [40] deals with Maternal embryonic leucine zipper kinase (Homo sapiens, UniProt Q14680). The format is functional.
For test [41], the target named is Cell division cycle 7-related protein kinase (Homo sapiens, UniProt O00311). The format is functional.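 Note: value obtained from a kinome-wide kinase panel.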
Test [42] addresses Casein kinase I isoform alpha (Homo sapiens, UniProt P48729). The format is functional.
Test [43] addresses ALK tyrosine kinase receptor (Homo sapiens, UniProt Q9UM73). It is filed as functional.
Test [44] has as its target Dual specificity tyrosine-phosphorylation-regulated kinase 1B (Homo sapiens, UniProt Q9Y463). Put plainly: Navigating the Kinome. Panel member name: DYRK1B. The format is functional.
In test [45] the target is Dual specificity mitogen-activated protein kinase kinase 1 (Homo sapiens, UniProt Q02750). The test is described as follows: Navigating the Kinome. Panel member name: MAP2K1. It is filed as functional.
Test [46] concerns the target Protein kinase C theta type (Homo sapiens, UniProt Q04759). Put plainly: Navigating the Kinome. Panel member name: PRKCQ. The format is functional.
Test [47] addresses Activated CDC42 kinase 1 (Homo sapiens, UniProt Q07912). The test is described as follows: Navigating the Kinome. Panel member name: ACK1. It is filed as functional.

Sequence of Serine/threonine-protein kinase Chk1 (O14757 whole entry): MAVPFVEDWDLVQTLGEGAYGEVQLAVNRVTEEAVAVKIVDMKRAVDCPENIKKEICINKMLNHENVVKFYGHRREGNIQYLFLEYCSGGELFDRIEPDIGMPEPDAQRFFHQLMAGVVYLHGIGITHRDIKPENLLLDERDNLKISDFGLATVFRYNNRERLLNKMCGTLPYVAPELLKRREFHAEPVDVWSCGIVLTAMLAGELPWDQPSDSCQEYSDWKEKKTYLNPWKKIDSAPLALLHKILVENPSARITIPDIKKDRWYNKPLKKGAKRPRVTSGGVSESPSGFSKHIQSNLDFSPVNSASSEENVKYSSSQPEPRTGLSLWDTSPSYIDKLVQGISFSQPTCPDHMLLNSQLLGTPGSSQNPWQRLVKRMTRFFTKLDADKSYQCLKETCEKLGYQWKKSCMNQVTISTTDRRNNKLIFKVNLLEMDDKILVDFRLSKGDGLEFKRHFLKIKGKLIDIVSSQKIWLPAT
Sequence of Platelet-derived growth factor receptor alpha (P16234 whole entry): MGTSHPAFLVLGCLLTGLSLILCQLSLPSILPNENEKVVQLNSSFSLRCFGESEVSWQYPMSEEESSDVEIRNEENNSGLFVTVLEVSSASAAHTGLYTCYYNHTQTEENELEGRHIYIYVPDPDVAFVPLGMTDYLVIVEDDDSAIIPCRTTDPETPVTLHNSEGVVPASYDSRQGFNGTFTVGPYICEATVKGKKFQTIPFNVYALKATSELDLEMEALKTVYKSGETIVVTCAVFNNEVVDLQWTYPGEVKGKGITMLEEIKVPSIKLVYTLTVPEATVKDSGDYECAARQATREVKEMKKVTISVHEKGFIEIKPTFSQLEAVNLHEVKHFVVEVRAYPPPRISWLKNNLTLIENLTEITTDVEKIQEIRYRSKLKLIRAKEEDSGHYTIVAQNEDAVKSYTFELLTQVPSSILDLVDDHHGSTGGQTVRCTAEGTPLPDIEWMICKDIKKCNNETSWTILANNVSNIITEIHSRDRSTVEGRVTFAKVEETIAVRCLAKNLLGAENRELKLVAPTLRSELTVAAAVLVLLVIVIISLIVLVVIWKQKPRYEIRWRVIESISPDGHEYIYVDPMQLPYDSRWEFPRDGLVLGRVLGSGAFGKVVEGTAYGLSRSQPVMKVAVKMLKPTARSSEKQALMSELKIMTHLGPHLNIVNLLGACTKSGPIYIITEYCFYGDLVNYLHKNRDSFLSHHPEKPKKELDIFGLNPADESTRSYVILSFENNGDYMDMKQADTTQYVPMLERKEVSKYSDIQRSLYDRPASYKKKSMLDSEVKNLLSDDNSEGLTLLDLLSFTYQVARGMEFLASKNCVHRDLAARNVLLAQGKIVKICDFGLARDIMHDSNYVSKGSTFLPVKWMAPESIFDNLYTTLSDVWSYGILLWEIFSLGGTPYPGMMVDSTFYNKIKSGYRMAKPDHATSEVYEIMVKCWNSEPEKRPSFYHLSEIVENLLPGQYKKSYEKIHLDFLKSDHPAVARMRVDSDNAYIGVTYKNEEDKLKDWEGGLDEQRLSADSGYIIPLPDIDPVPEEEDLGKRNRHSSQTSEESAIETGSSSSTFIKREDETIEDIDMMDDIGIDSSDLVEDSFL

On to `NC(COc1cncc(-c2cc3ccncc3s2)c1)Cc1c[nH]c2ccccc12` (configuration not stated), for which the Ki in [1] is 0.0251 µM (active); in test [2] it was > 2 µM (inactive); in test [3] it was 0.1 µM (active); in test [4], > 1.58 µM (inactive); in test [5], 0.794 µM (active); in test [6] it was 0.01 µM (active). The Ki in test [7] is 0.00631 µM (active); in [8], 0.794 µM (active); in test [9], 0.398 µM (active); in test [10], 1.58 µM (active); in test [11], 3.16 µM (active); in test [12], 0.794 µM (active). Also, the Ki in [13] was 0.398 µM (active); in test [14], 7.94 µM (active); in test [15], 3.98 µM (active); in test [16], 0.0126 µM (active); in test [17] it was > 1.58 µM (inactive); in [18] it was 0.316 µM (active). The Ki in test [19] was > 3.16 µM (inactive); in test [20] it was 0.0501 µM (active); in test [21], > 3.16 µM (inactive); in [22] it was 0.398 µM (active); in test [23], > 5.01 µM (inactive); in test [24], 2 µM (active). For the same compound, the figures for the Ki in [25], in test [26] and in test [27] were 0.631 µM (active), > 10 µM (inactive) and > 2 µM (inactive), respectively.
With `CN(C)C1CCC(Nc2nc(Cl)cc(-c3c[nH]c4ncccc34)n2)CC1` (configuration not stated), the Ki was 0.316 µM (active) in [28]; 0.316 µM (active) in [29]; 2 µM (active) in test [30]; 5.01 µM (active) in test [31]; > 3.98 µM (inactive) in test [32]; 1.26 µM (active) in [33]. Also, the Ki in [34] was > 2.51 µM (inactive); in test [35] it was 0.0158 µM (active); in test [36] it was 2.51 µM (active); in test [37] it was 0.398 µM (active); in test [38], 2.51 µM (active); in test [39], 0.01 µM (active). In addition, the Ki was 0.00316 µM (active) in [40]; 0.000316 µM (active) in [41]; 0.251 µM (active) in [42]; 1.58 µM (active) in [43]; 0.0251 µM (active) in [44]; 0.2 µM (active) in test [45]. In addition, the Ki is 0.00794 µM (active) in test [46] and > 3.98 µM (inactive) in test [47].

For the origin of these results see ChEMBL document CHEMBL1201862, “PubChem BioAssay data set” (2004).
